Source: US20260053812A1, “METHODS OF TREATING HYPERTENSION WITH A COMBINATION OF AN ALDOSTERONE SYNTHASE INHIBITOR AND A DIURETIC” (Mineralys Therapeutics, Inc., priority 2022, published 2026)

Assay: Estimated glomerular filtration rate (eGFR, CKD-EPI equation)
Format: in vivo, human
Conditions: for Estimated Glomerular Filtration Rate, mean observed / Estimated Glomerular Filtration Rate, mean change from baseline: Part 1

## CC(=O)N[C@H]1CC[C@H](NC(=O)CN2CCN(c3nncc(-c4ccc(C)cc4)n3)CC2)CC1 [Compound A HBr]
100 mg QD, Part 1, Week 2
  eGFR mean maximum decline relative to baseline: 10.91 mL/min/1.73 m^2
12.5 mg BID, BL
  Estimated Glomerular Filtration Rate, mean observed: 81.70 mL/min/1.73 m^2
12.5 mg BID, Week 1
  Estimated Glomerular Filtration Rate, mean change from baseline: −2.25 mL/min/1.73 m^2
  Estimated Glomerular Filtration Rate, mean observed: 79.45 mL/min/1.73 m^2
12.5 mg BID, Week 2
  Estimated Glomerular Filtration Rate, mean change from baseline: −3.69 mL/min/1.73 m^2
  Estimated Glomerular Filtration Rate, mean observed: 78.86 mL/min/1.73 m^2
12.5 mg BID, Week 3
  Estimated Glomerular Filtration Rate, mean change from baseline: −5.17 mL/min/1.73 m^2
  Estimated Glomerular Filtration Rate, mean observed: 77.38 mL/min/1.73 m^2
12.5 mg BID, Week 4
  Estimated Glomerular Filtration Rate, mean change from baseline: −6.58 mL/min/1.73 m^2
  Estimated Glomerular Filtration Rate, mean observed: 76.30 mL/min/1.73 m^2
12.5 mg BID, Week 5
  Estimated Glomerular Filtration Rate, mean change from baseline: −7.58 mL/min/1.73 m^2
  Estimated Glomerular Filtration Rate, mean observed: 73.84 mL/min/1.73 m^2
12.5 mg BID, Week 6
  Estimated Glomerular Filtration Rate, mean change from baseline: −6.45 mL/min/1.73 m^2
  Estimated Glomerular Filtration Rate, mean observed: 74.70 mL/min/1.73 m^2
12.5 mg BID, Week 7
  Estimated Glomerular Filtration Rate, mean change from baseline: −7.03 mL/min/1.73 m^2
  Estimated Glomerular Filtration Rate, mean observed: 75.85 mL/min/1.73 m^2
12.5 mg BID, Week 8
  Estimated Glomerular Filtration Rate, mean change from baseline: −6.66 mL/min/1.73 m^2
  Estimated Glomerular Filtration Rate, mean observed: 76.32 mL/min/1.73 m^2
12.5 mg QD, BL
  Estimated Glomerular Filtration Rate, mean observed: 77.87 mL/min/1.73 m^2
12.5 mg QD, Week 1
  Estimated Glomerular Filtration Rate, mean change from baseline: −4.30 mL/min/1.73 m^2
  Estimated Glomerular Filtration Rate, mean observed: 73.57 mL/min/1.73 m^2
12.5 mg QD, Week 2
  Estimated Glomerular Filtration Rate, mean change from baseline: −4.87 mL/min/1.73 m^2
  Estimated Glomerular Filtration Rate, mean observed: 73.00 mL/min/1.73 m^2
12.5 mg QD, Week 3
  Estimated Glomerular Filtration Rate, mean change from baseline: −2.05 mL/min/1.73 m^2
  Estimated Glomerular Filtration Rate, mean observed: 77.21 mL/min/1.73 m^2
12.5 mg QD, Week 4
  Estimated Glomerular Filtration Rate, mean change from baseline: −5.45 mL/min/1.73 m^2
  Estimated Glomerular Filtration Rate, mean observed: 73.40 mL/min/1.73 m^2
12.5 mg QD, Week 5
  Estimated Glomerular Filtration Rate, mean change from baseline: −3.60 mL/min/1.73 m^2
  Estimated Glomerular Filtration Rate, mean observed: 75.25 mL/min/1.73 m^2
12.5 mg QD, Week 6
  Estimated Glomerular Filtration Rate, mean change from baseline: −6.28 mL/min/1.73 m^2
  Estimated Glomerular Filtration Rate, mean observed: 73.39 mL/min/1.73 m^2
12.5 mg QD, Week 7
  Estimated Glomerular Filtration Rate, mean change from baseline: −7.17 mL/min/1.73 m^2
  Estimated Glomerular Filtration Rate, mean observed: 72.50 mL/min/1.73 m^2
12.5 mg QD, Week 8
  Estimated Glomerular Filtration Rate, mean change from baseline: −3.67 mL/min/1.73 m^2
  Estimated Glomerular Filtration Rate, mean observed: 76.00 mL/min/1.73 m^2
25 mg BID, BL
  Estimated Glomerular Filtration Rate, mean observed: 80.85 mL/min/1.73 m^2
25 mg BID, Week 1
  Estimated Glomerular Filtration Rate, mean change from baseline: −6.85 mL/min/1.73 m^2
  Estimated Glomerular Filtration Rate, mean observed: 74.00 mL/min/1.73 m^2
25 mg BID, Week 2
  Estimated Glomerular Filtration Rate, mean change from baseline: −5.42 mL/min/1.73 m^2
  Estimated Glomerular Filtration Rate, mean observed: 75.43 mL/min/1.73 m^2
25 mg BID, Week 3
  Estimated Glomerular Filtration Rate, mean change from baseline: −5.90 mL/min/1.73 m^2
  Estimated Glomerular Filtration Rate, mean observed: 75.07 mL/min/1.73 m^2
25 mg BID, Week 4
  Estimated Glomerular Filtration Rate, mean change from baseline: −6.69 mL/min/1.73 m^2
  Estimated Glomerular Filtration Rate, mean observed: 73.48 mL/min/1.73 m^2
25 mg BID, Week 5
  Estimated Glomerular Filtration Rate, mean change from baseline: −7.41 mL/min/1.73 m^2
  Estimated Glomerular Filtration Rate, mean observed: 73.25 mL/min/1.73 m^2
25 mg BID, Week 6
  Estimated Glomerular Filtration Rate, mean change from baseline: −8.02 mL/min/1.73 m^2
  Estimated Glomerular Filtration Rate, mean observed: 72.64 mL/min/1.73 m^2
25 mg BID, Week 7
  Estimated Glomerular Filtration Rate, mean change from baseline: −7.85 mL/min/1.73 m^2
  Estimated Glomerular Filtration Rate, mean observed: 72.22 mL/min/1.73 m^2
25 mg BID, Week 8
  Estimated Glomerular Filtration Rate, mean change from baseline: −5.55 mL/min/1.73 m^2
  Estimated Glomerular Filtration Rate, mean observed: 75.11 mL/min/1.73 m^2
50 mg QD, BL
  Estimated Glomerular Filtration Rate, mean observed: 77.18 mL/min/1.73 m^2
